Measured values from ChEMBL document CHEMBL4419178, “Yap1 inhibitors that target the interaction of yap1 with oct4” (2018).
Calls of active or inactive are those of the source. The rule behind the calls is not given here.

Legend:
[1] = target: Transcriptional coactivator YAP1 (Homo sapiens) (UniProt P46937); test: Inhibition of YAP1 (unknown origin) assessed as disruption in YAP1/OCT4 interaction at 5 uM by ELISA relative to control
[2] = target: Transcriptional coactivator YAP1 (Homo sapiens) (UniProt P46937); test: Inhibition of YAP1 (unknown origin) assessed as disruption in YAP1/OCT4 interaction at 50 uM by cell based assay
[3] = target: Transcriptional coactivator YAP1 (Homo sapiens) (UniProt P46937); test: Inhibition of YAP1 in human A549 cells assessed as disruption in YAP1/OCT4 co-localization at 25 uM incubated for 48 hrs by double immunofluorescence based assay; format: cell-based
[4] = target: Transcriptional coactivator YAP1 (Homo sapiens) (UniProt P46937); test: Inhibition of YAP1 in human NCI-H1650 cells assessed as disruption in YAP1/OCT4 interaction at 20 to 50 uM incubated for 48 hrs by proximity ligation assay; format: cell-based
[5] = system: NCI-H1650; test: Inhibition of YAP1 in human NCI-H1650 cells assessed as disruption in YAP1/TEAD2 interaction at 20 to 50 uM incubated for 48 hrs by proximity ligation assay; format: cell-based
[6] = system: NCI-H1650; test: Inhibition of self-renewal capacity in stem-like side-population cells of human NCI-H1650 cells assessed as reduction in number of spheres at 50 uM incubated for 10 days by sphere formation assay; format: functional, cell-based
[7] = system: NCI-H1650; test: Inhibition of self-renewal capacity in stem-like side-population cells of human NCI-H1650 cells assessed as reduction in number of spheres at 5 to 50 uM incubated for 10 days by sphere formation assay; format: functional, cell-based
[8] = system: NCI-H1650; test: Cytotoxicity in human NCI-H1650 cells assessed as induction of cell killing in presence of cancer associated fibroblasts at 20 to 50 uM incubated for 24 to 48 hrs by cytotracker-red/green dye staining based immunofluorescence microscopy; format: functional
[9] = Cytotoxicity in human cancer associated fibroblasts at 20 to 50 uM incubated for 24 to 48 hrs by cytotracker-red/green dye staining based immunofluorescence microscopy
[10] = system: NCI-H1650; test: Inhibition of self-renewal capacity in stem-like side-population cells of human NCI-H1650 cells assessed as reduction in number of spheres at 1 to 20 uM incubated for 10 days by sphere formation assay; format: functional, cell-based

Transcriptional coactivator YAP1 (Homo sapiens), sequence (P46937 whole entry): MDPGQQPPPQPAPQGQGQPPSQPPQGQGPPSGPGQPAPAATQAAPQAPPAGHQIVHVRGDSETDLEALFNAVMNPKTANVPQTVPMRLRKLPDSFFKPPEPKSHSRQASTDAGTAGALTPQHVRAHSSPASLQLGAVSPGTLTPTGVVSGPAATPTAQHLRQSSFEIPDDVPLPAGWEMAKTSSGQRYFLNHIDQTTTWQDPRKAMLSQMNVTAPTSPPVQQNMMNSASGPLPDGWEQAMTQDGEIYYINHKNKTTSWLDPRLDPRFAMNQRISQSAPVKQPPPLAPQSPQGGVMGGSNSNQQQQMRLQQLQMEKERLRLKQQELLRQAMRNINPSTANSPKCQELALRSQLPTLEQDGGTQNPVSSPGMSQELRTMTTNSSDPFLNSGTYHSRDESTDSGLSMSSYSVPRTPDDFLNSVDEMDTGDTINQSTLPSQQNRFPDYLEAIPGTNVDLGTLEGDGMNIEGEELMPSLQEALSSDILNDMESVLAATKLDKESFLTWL

CC(C)(C)OC(=O)N1CCC(CC(=O)N[C@@H](Cc2ccc(OCc3ccccc3)cc2)C(=O)NC2CCCCC2)CC1
inhibition [1]: 75%
inhibition [2]: 71%

Oc1ccccc1/N=C/c1c(O)ccc2ccccc12
inhibition [3]: Active
inhibition [4]: Active
inhibition [5]: Active
inhibition [6]: Active
inhibition [7]: Active
Activity [8]: Active
Activity [9]: Non-Toxic

COC(=O)[C@H](Cc1ccc(OCc2ccccc2)cc1)NC(=O)CC1CCN(C(=O)CCc2cccc(C)c2)CC1
inhibition [10]: Active

O=C(CC1CCN(C(=O)CCc2ccccc2)CC1)N[C@@H](Cc1ccc(OCc2ccccc2)cc1)C(=O)NCC1CC1
inhibition [1]: 95%
inhibition [2]: > 84%

COC(=O)[C@H](Cc1ccc(OCc2ccccc2)cc1)NC(=O)CC1CCN(C(=O)CCc2ccccc2C)CC1
inhibition [10]: Active

O=C(CC1CCN(C(=O)CCc2cccc(F)c2)CC1)N[C@@H](Cc1ccc(OCc2ccccc2)cc1)C(=O)O
inhibition [7]: Active

COC(=O)[C@H](Cc1ccc(OCc2ccccc2)cc1)NC(=O)CC1CCN(C(=O)CC(c2ccccc2)c2ccccc2)CC1
inhibition [10]: Active
